Reference: US8569292B2, “Cyclic inhibitors of 11β-hydroxysteroid dehydrogenase 1” (Vitae Pharmaceuticals, Inc., priority 2008, dated 2013)

Tests used:
11β-HSD1 [1] = biological target: T1, 11β-HSD1 (Homo sapiens, UniProt P28845); test: biochemical; conditions: for inhibition at 0.1 µM: read-out: Average % inhibition at 100 nM
11β-HSD1 [2] = biological target: T1, 11β-HSD1; test: Biological Test Example 4: microsomal 11β-HSD1 in the presence of 50% human plasma; conditions: for Shift: IC50 in Test Example 4 divided by IC50 in Test Example 1
CYP2C9 = biological target: T2, CYP2C9 (Homo sapiens, UniProt P11712); test: Biological Test Example 9: CYP2C9 inhibition (Invitrogen kit, fluorogenic OOMR); type: in vitro ADME
T2 construct: purchased Invitrogen 2859; host or cells: insect cells infected with baculovirus (microsomes)
T2 sequence (P11712 whole entry): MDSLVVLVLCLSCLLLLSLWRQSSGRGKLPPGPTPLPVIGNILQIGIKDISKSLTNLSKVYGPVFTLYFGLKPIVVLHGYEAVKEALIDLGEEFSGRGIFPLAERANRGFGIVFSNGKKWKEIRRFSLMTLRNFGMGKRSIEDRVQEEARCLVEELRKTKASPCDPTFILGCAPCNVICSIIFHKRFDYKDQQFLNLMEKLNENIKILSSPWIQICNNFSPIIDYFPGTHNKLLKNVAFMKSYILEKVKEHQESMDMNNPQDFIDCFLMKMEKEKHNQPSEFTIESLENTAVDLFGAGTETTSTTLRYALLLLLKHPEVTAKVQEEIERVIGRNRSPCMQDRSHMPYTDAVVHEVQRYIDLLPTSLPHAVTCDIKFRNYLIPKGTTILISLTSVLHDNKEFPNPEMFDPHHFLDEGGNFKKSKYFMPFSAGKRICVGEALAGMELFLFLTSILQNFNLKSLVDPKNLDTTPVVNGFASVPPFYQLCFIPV

[3] = Biological Test Example 1 IC50 (nM)
[4] = IC50 Range, Biological Test Example 1

T1 sequence (P28845 whole entry): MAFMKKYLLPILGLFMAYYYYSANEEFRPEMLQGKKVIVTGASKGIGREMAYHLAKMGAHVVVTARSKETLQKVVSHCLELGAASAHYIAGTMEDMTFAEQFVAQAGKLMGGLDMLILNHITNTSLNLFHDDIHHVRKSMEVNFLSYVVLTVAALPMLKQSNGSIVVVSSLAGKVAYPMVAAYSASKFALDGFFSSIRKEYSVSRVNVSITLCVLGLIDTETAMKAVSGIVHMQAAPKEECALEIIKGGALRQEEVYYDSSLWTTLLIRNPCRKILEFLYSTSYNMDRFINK

Row | Structure (SMILES) | IC50 (11β-HSD1 [1]; [3]) | IC50 (11β-HSD1 [1]; [4]) | inhibition at 0.1 µM (11β-HSD1 [1]) | IC50 (11β-HSD1 [2]) | Shift (11β-HSD1 [2]) | IC50 (CYP2C9)
1 | C[C@@H](c1ccc(-c2cccnn2)cc1)N1CC[C@](CCCO)(c2ccc(F)cc2)OC1=O [EXAMPLE 132, (R)-6-(4-fluorophenyl)-6-(3-hydroxypropyl)-3-((S)-1-(4-(pyridazin-3-yl)phenyl)ethyl)-1,3-oxazinan-2-one] | 6.1 nM | < 100 nM | 95.2% | 18.9 nM | 3.1 | 18300 nM
2 | C[C@@H](c1ccc(-c2ccccn2)cc1)N1CC[C@](CC(C)(C)O)(c2ccc(F)cc2)OC1=O [EXAMPLE 58, (S)-6-(4-fluorophenyl)-6-(2-hydroxy-2-methylpropyl)-3-((S)-1-(4-(pyridin-2-yl)phenyl)ethyl)-1,3-oxazinan-2-one] | 0.8 nM | < 100 nM | 97.4% | 7.2 nM | – | 16900 nM
3 | Cc1cc(-c2ccc([C@H](C)N3CC[C@](C)(c4ccc(F)cc4)OC3=O)cc2)ccn1 (single isomer, unassigned) [EXAMPLE 107.2] | 3.2 nM | < 100 nM | 93.6% | 269 nM | 83.8 | 17500 nM
4 | C[C@@H](c1ccc(-c2cccnc2)cc1)N1CC[C@](CCCNS(C)(=O)=O)(c2ccccc2)OC1=O [EXAMPLE 91, N-(3-((R)-2-oxo-6-phenyl-3-((S)-1-(4-(pyridin-3-yl)phenyl)ethyl)-1,3-oxazinan-6-yl)propyl)methanesulfonamide] | 1.4 nM | < 100 nM | 90.2% | 13.7 nM | – | 17300 nM
5 | COc1ccc(-c2ccc([C@H](C)N3CC[C@](CC(C)(C)O)(c4ccc(F)cc4)OC3=O)cc2)cn1 [EXAMPLE 64, (S)-6-(4-fluorophenyl)-6-(2-hydroxy-2-methylpropyl)-3-((S)-1-(4-(6-methoxypyridin-3-yl)phenyl)ethyl)-1,3-oxazinan-2-one] | 0.8 nM | < 100 nM | 99.6% | 6.2 nM | 8.2 | 4700 nM
6 | Cc1cc(-c2ccc([C@H](C)N3CC[C@](CCCO)(c4ccccc4)OC3=O)cc2)cc(C)[n+]1[O-] [EXAMPLE 120, 4-(4-((S)-1-((R)-6-(3-hydroxypropyl)-2-oxo-6-phenyl-1,3-oxazinan-3-yl)ethyl)phenyl)-2,6-dimethylpyridine 1-oxide] | 6.7 nM | < 100 nM | 93.1% | 24.2 nM | 3.6 | 4700 nM
7 | C[C@@H](c1ccc(-c2ccc(C(F)(F)F)nc2)cc1)N1CC[C@](CCCO)(c2ccc(F)cc2)OC1=O [EXAMPLE 44, (R)-6-(4-fluorophenyl)-6-(3-hydroxypropyl)-3-((S)-1-(4-(6-(trifluoromethyl)pyridin-3-yl)phenyl)ethyl)-1,3-oxazinan-2-one] | 0.7 nM | < 100 nM | 100% | 4.2 nM | – | 1400 nM
8 | Cc1cc(-c2ccc([C@H](C)N3CC[C@@](C)(c4ccc(F)cc4)OC3=O)cc2)ccn1 (single isomer, unassigned) [EXAMPLE 107.1] | 3.2 nM | < 100 nM | 95.5% | 86.4 nM | 26.9 | 2700 nM
9 | C[C@@H](c1ccc(-c2cncc(F)c2)cc1)N1CC[C@](CCCO)(c2ccc(F)cc2)OC1=O [EXAMPLE 148, (R)-6-(4-fluorophenyl)-3-((S)-1-(4-(5-fluoropyridin-3-yl)phenyl)ethyl)-6-(3-hydroxypropyl)-1,3-oxazinan-2-one] | 0.7 nM | < 100 nM | 97.4% | 4.8 nM | 7.3 | 1700 nM
10 | Cc1cccc(-c2ccc([C@H](C)N3CC[C@](CCCO)(c4ccc(F)cc4)OC3=O)cc2)n1 [EXAMPLE 62, (R)-6-(4-fluorophenyl)-6-(3-hydroxypropyl)-3-((S)-1-(4-(6-methylpyridin-2-yl)phenyl)ethyl)-1,3-oxazinan-2-one] | 0.5 nM | < 100 nM | 97.9% | 22.6 nM | 44.2 | 10900 nM
11 | C[C@@H](c1ccc(-c2ccn(C)n2)cc1)N1CC[C@](CCCO)(c2ccccc2)OC1=O [EXAMPLE 100, (R)-6-(3-hydroxypropyl)-3-((S)-1-(4-(1-methyl-1H-pyrazol-3-yl)phenyl)ethyl)-6-phenyl-1,3-oxazinan-2-one] | 1.2 nM | < 100 nM | 93.1% | 6 nM | 4.8 | 4500 nM
12 | COc1cncc(-c2ccc([C@H](C)N3CC[C@](CCCO)(c4ccc(F)cc4)OC3=O)cc2)c1 [EXAMPLE 53, (R)-6-(4-fluorophenyl)-6-(3-hydroxypropyl)-3-((S)-1-(4-(5-methoxypyridin-3-yl)phenyl)ethyl)-1,3-oxazinan-2-one] | 1.3 nM | < 100 nM | 98.7% | 18.5 nM | 14.6 | 6600 nM
13 | Cc1cc(-c2ccc([C@H](C)N3CC[C@](CC(C)(C)O)(c4ccc(F)cc4)OC3=O)cc2)cc(C)[n+]1[O-] [EXAMPLE 123, 4-(4-((S)-1-((S)-6-(4-fluorophenyl)-6-(2-hydroxy-2-methylpropyl)-2-oxo-1,3-oxazinan-3-yl)ethyl)phenyl)-2,6-dimethylpyridine 1-oxide] | 6.6 nM | < 100 nM | 93.6% | 11.1 nM | 1.7 | 9100 nM
14 | COc1ccc(-c2ccc([C@H](C)N3CC[C@](CCCNS(C)(=O)=O)(c4ccc(F)cc4)OC3=O)cc2)cn1 [EXAMPLE 67, N-(3-((R)-6-(4-fluorophenyl)-3-((S)-1-(4-(6-methoxypyridin-3-yl)phenyl)ethyl)-2-oxo-1,3-oxazinan-6-yl)propyl)methanesulfonamide] | 0.7 nM | < 100 nM | 101% | 6.7 nM | 9.9 | 3800 nM
15 | C[C@@H](c1ccc(-c2cncnc2)cc1)N1CC[C@](CCCO)(c2ccc(F)cc2)OC1=O [EXAMPLE 129, (R)-6-(4-fluorophenyl)-6-(3-hydroxypropyl)-3-((S)-1-(4-(pyrimidin-5-yl)phenyl)ethyl)-1,3-oxazinan-2-one] | 4.3 nM | < 100 nM | 93.9% | 17.3 nM | 4.1 | 28300 nM
16 | Cc1cc(-c2ccc([C@H](C)N3CC[C@](CC(C)(C)O)(c4ccccc4)OC3=O)cc2)cc(C)[n+]1[O-] [EXAMPLE 121, 4-(4-((S)-1-((S)-6-(2-hydroxy-2-methylpropyl)-2-oxo-6-phenyl-1,3-oxazinan-3-yl)ethyl)phenyl)-2,6-dimethylpyridine 1-oxide] | 2.3 nM | < 100 nM | 97.3% | 7.5 nM | – | 4800 nM
17 | C[C@@H](c1ccc(-c2cncc(Cl)c2)cc1)N1CC[C@](CCCO)(c2ccc(F)cc2)OC1=O [EXAMPLE 69, (R)-3-((S)-1-(4-(5-chloropyridin-3-yl)phenyl)ethyl)-6-(4-fluoroPhenyl)-6-(3-hydroxypropyl)-1,3-oxazinan-2-one] | 0.6 nM | < 100 nM | 98.3% | 6.3 nM | 9.8 | 2300 nM
18 | Cc1nc(C)c(-c2ccc([C@H](C)N3CC[C@](CCCO)(c4ccc(F)cc4)OC3=O)cc2)s1 [EXAMPLE 83, (R)-3-((S)-1-(4-(2,4-dimethylthiazol-5-yl)phenyl)ethyl)-6-(4-fluorophenyl)-6-(3-hydroxypropyl)-1,3-oxazinan-2-one] | 1 nM | < 100 nM | 94.7% | 8.8 nM | 8.9 | 3900 nM
19 | C=CC[C@]1(c2ccc(F)cc2)CCN([C@@H](C)c2ccc(-c3cncc(Cl)c3)cc2)C(=O)O1 [EXAMPLE 54, (R)-6-allyl-3-((S)-1-(4-(5-chloropyridin-3-yl)phenyl)ethyl)-6-(4-fluorophenyl)-1,3-oxazinan-2-one] | 1 nM | < 100 nM | 97.1% | 39.4 nM | 38.4 | 400 nM
20 | C[C@@H](c1ccc(-c2ccccn2)cc1)N1CC[C@](CCCO)(c2ccc(F)cc2)OC1=O [EXAMPLE 59, (R)-6-(4-fluorophenyl)-6-(3-hydroxypropyl)-3-((S)-1-(4-(pyridin-2-yl)phenyl)ethyl)-1,3-oxazinan-2-one] | 0.5 nM | < 100 nM | 100% | 5.1 nM | 9.9 | 10900 nM
21 | C[C@@H](c1ccc(-c2cccnc2)cc1)N1CC[C@](CCO)(c2ccc(F)cc2)OC1=O [EXAMPLE 37, (S)-6-(4-fluorophenyl)-6-(2-hydroxyethyl)-3-((S)-1-(4-(pyridin-3-yl)phenyl)ethyl)-1,3-oxazinan-2-one] | 2.5 nM | < 100 nM | 94.3% | 6.1 nM | 2.5 | 8500 nM
22 | Cc1cc(-c2ccc([C@H](C)N3CC[C@](CC4(O)CC4)(c4ccc(F)cc4)OC3=O)cc2)ccn1 [EXAMPLE 115, (S)-6-(4-fluorophenyl)-6-((1-hydroxycyclopropyl)methyl)-3-((S)-1-(4-(2-methylpyridin-4-yl)phenyl)ethyl)-1,3-oxazinan-2-one] | 1 nM | < 100 nM | 95.1% | 10.3 nM | 10.2 | 4400 nM
